# Legend:
# [1] = Frozen section autoradiography / in vitro binding on tissue slices; design: species or system human; details: for tracer binding in inflammatory tissues in vitro: about 20 micrometer slices, about 2 nM tracer, about 40 minutes, room temperature
# Procedure: There are various hypothesis as to what biological mechanisms are behind the high uptake of DDE in inflammatory joint tissues of humans.
# The in vitro binding experiments were performed on thin slices of tissue of about 20 micrometers in rats and in humans. The thin slices of tissues were adhered to gelatinized slide glasses. […] After incubation the slide glasses were washed about 3 times in a buffer, dried, and exposed on phosphor imaging plates for a minimum of 60 minutes.
# [2] = PET-CT with DDE in healthy subjects; format: in vivo, human; details: eight healthy subjects
# Excerpt: In a third experiment eight healthy subjects were investigated using a PET-CT (Computerized Tomography) scanner. PET/CT combines the strengths of two well-established imaging modalities, PET for function and CT for anatomy, into a single imaging device. The subjects were free from pain in the neck and shoulder regions during at least two months and they had not been involved in accidents which could have caused a neck injury.
# [3] = PET with DDE (and GLD) in patients with whiplash associated disorder (WAD); format: in vivo, human; details: for increase of uptake at cervical vertebrae 2 and 3 (insertion in m. semispinalis capitis): one case
# Excerpt: Clinically, those patients with a higher uptake of DDE in the affected joint areas seem to report high pain ratings while being in the scanner.
# In a similar experiment, sixteen patients were investigated using a high resolution PET scanner.
# In the […] experiments, local uptake was present in all cases in the parotis and submandibularis glandulae. Differences between patients were found in areas related to the insertion of muscles to the occipital bone, vertebrae and clavicula.
# [4] = PET with DDE in inflamed joints (rheumatoid arthritis patients); format: in vivo, human
# [5] = Pilot PET experiments in patients with bacterial abscesses; format: in vivo, human; details: small pilot series in patients
compound,measurement,setting,value
"C#CCN([11CH3])[C@@H](C)Cc1ccccc1 [DDE, D-[methyl-^11C]-deprenyl]",tracer binding in inflammatory tissues in vitro,[1],very high
same,binding in frozen section autoradiography,[1]; various tissues,much higher binding in inflamed joints than any other tissues
same,increased uptake in scanned neck and shoulder regions,[2],None of the subjects revealed an increased uptake
same,"increase in uptake compared with the cerebellum, insertion of m. rectus capitis posterior major","[3]; bilaterally in 3 patients, normalized to inferior part of the cerebellum",57%-127%
same,binding of tracer to soft tissue in the neck vertebra,"[3]; four of eight WAD patients, PET",appeared to bind to soft tissue in the neck vertebra
same,difference in uptake between right and left side,"[3]; fourth patient, no clear increase",40%
same,increase of uptake at cervical vertebrae 2 and 3 (insertion in m. semispinalis capitis),[3],approximately 70%
same,patients with increased uptake in the neck and shoulder areas,"[3]; sixteen patients, high resolution PET scanner",about 50%
same,uptake and retention on swollen synovial tissue,[4]; inflamed synovial joints,very pronounced uptake and retention
same,uptake in affected joint after intra-articular injections of glucocorticoids,[4]; observed 6-14 days after treatment,significant diminishing of the uptake
same,blocking of uptake in inflamed joint by Eldepryl (MAO-B blocking),[4]; one patient re-examined after administration of Eldepryl,no blocking effect
same,activity in inflamed tissue as seen in PET images,[4]; patients with rheumatoid arthritis,very high activity
same,reduction of activity in inflamed tissue,[4]; the day after intra-articular administration of glucocorticoid,50%
same,increase of tracer uptake in bacterial abscesses,[5],no visible increase
"[11CH3]Oc1ccc(-n2nnnc2C(F)(F)F)cc1CN[C@H]1CCCN[C@H]1c1ccccc1 [GLD, [^11C]-GR205171]",tracer binding in inflammatory tissues in vitro,[1],very high
same,increase of uptake at cervical vertebrae 2 and 3 (insertion in m. semispinalis capitis),[3],approximately 70%
same,increase of tracer uptake in bacterial abscesses,[5],no visible increase

# — patent publication US20110293518A1 (GE HEALTHCARE LIMITED, priority 2005, published 2011)
